Experimental data as given in US5807535A, “Metal complexes of hydroxyaryl containing aminocarboxylic acid chelating agents” (Australian Nuclear Science & Technology Organisation, priority 1992, dated 1998).
Where two headings read alike, the source gives them in different places.

Columns and labels:
[1] = Biodistribution of compound No. 6 in mice (Table 6); format: in vivo, Balb/c mice; conditions: mouse; for tissue uptake at 0.05 h: 3 min
From the text: (§1) A series of derivatives incorporating carboxyl and phenolate donor groups (1-6) were synthesised by literature method and their radiolabelling characteristic and biological behaviour evaluated. Initial work involved an investigation of radiochemical properties of the ^99m Tc complexes of the ligands and their biodistribution in rats and mice (see Tables 1-6 and 8-12).
(§2) A typical method of radiolabelling of the chelator was achieved by dissolving the chelator in a basic solution of saline. The pH was then adjusted to approx. 6 with HCl. Excess stannous chloride was added to the resultant solution followed by one equivalent volume of sodium ^99m TcO4 (10-50 mCi/ml). Final concentration of the chelator was approx. 1 mg/ml. The efficacy of labelling was determined by ITLC-SG. For each product only one main radiochemical species was observed. Each complex was diluted to 15 μCi/100 μl with saline. […] (See FIGS. 1A and 1B).

[2] = Biodistribution of 99mTc complexes in mice; format: in vivo, Balb/c mice
From the text: as §1, §2

[3] = Biodistribution of 67Ga complexes in mice; format: in vivo, balb/c mice
Procedure: To ligand (50 μL, 10 mg/mL, 0.2 M NaOAc, […]) was added ^67 Ga citrate (18.5 MBq) and the resultant mixture diluted to 1 mL (0.2 M NaOAc, pH 7). The pH was adjusted to 12 with 1 M NaOH (20 μL) and heated at 40° C. for 40 min. The final volume was adjusted (to 5 mL) with saline and sterilised by filtering through a 0.22 μm filter.
Each animal was injected via tail vein with ^67 Ga complex (100 μL, ~3.7×10^5 Bq). Animals were sacrificed at various time intervals (5 animals per time point/6 time points). Data are illustrated in FIG. 26-30 and in Tables 13-17.
Each ^67 Ga-ligand complex has been evaluated in balb/c mice. […] (see FIG. 26-30).

[4] = lymphoma diagnosis; cited from earlier work
[5] = blood, read-out: biodistribution blood
[6] = bone, read-out: biodistribution bone
[7] = brain, read-out: biodistribution brain
[8] = heart, read-out: biodistribution heart
[9] = kidneys, read-out: biodistribution kidneys
[10] = liver, read-out: biodistribution liver
[11] = lungs, read-out: biodistribution lungs
[12] = muscle, read-out: biodistribution muscle
[13] = pancreas, read-out: biodistribution pancreas
[14] = skin, read-out: biodistribution skin
[15] = spleen, read-out: biodistribution spleen
[16] = stomach, read-out: biodistribution stomach
[17] = tail, read-out: biodistribution tail
[18] = thymus, read-out: biodistribution thymus
[19] = thyroid, read-out: biodistribution thyroid
[20] = total git, read-out: biodistribution tot GIT
[21] = urine, read-out: biodistribution urine

Cc1cc(C)c(O)c(NC(=O)CN(CCN(CC(=O)O)CC(=O)Nc2cc(C)cc(C)c2O)CC(=O)O)c1 [Compound 6]
tissue uptake at 0.05 h [1, 5]: 10.7 %ID/g | tissue uptake at 5 min [1, 5]: 7.83 %ID/g | tissue uptake at 0.05 h [1, 6]: 1.91 %ID/g | tissue uptake at 5 min [1, 6]: 1.39 %ID/g | tissue uptake at 0.05 h [1, 7]: 0.74 %ID/g | tissue uptake at 5 min [1, 7]: 0.35 %ID/g | tissue uptake at 0.05 h [1, 8]: 3.84 %ID/g | tissue uptake at 5 min [1, 8]: 2.8 %ID/g | tissue uptake at 0.05 h [1, 9]: 24.1 %ID/g | tissue uptake at 5 min [1, 9]: 18.4 %ID/g | tissue uptake at 0.05 h [1, 10]: 6.52 %ID/g | tissue uptake at 5 min [1, 10]: 9.39 %ID/g | tissue uptake at 0.05 h [1, 11]: 6.38 %ID/g | tissue uptake at 5 min [1, 11]: 4.66 %ID/g | tissue uptake at 0.05 h [1, 12]: 1.81 %ID/g | tissue uptake at 5 min [1, 12]: 1.26 %ID/g | tissue uptake at 0.05 h [1, 13]: 1.86 %ID/g | tissue uptake at 5 min [1, 13]: 1.41 %ID/g | tissue uptake at 0.05 h [1, 14]: 3.96 %ID/g | tissue uptake at 5 min [1, 14]: 3.47 %ID/g | tissue uptake at 0.05 h [1, 15]: 2.24 %ID/g | tissue uptake at 5 min [1, 15]: 1.78 %ID/g | tissue uptake at 0.05 h [1, 16]: 1.78 %ID/g | tissue uptake at 5 min [1, 16]: 6.85 %ID/g | tissue uptake at 0.05 h [1, 17]: 8.94 %ID/g | tissue uptake at 5 min [1, 17]: 6.18 %ID/g | tissue uptake at 0.05 h [1, 18]: 3.67 %ID/g | tissue uptake at 5 min [1, 18]: 2.5 %ID/g | tissue uptake at 0.05 h [1, 19]: 5.76 %ID/g | tissue uptake at 5 min [1, 19]: 3.73 %ID/g | tissue uptake at 0.05 h [1, 20]: 1.03 %ID/g | tissue uptake at 5 min [1, 20]: 2.12 %ID/g | tissue uptake at 0.05 h [1, 21]: 1.3 %ID/g | tissue uptake at 5 min [1, 21]: 0.95 %ID/g | biodistribution GIT ([2]; 1 min): 3.58 % Injected dose | biodistribution bladder ([2]; 1 min): 0.06 % Injected dose | biodistribution blood ([2]; 1 min): 41.63 % Injected dose | biodistribution bone ([2]; 1 min): 7.37 % Injected dose | biodistribution heart ([2]; 1 min): 0.46 % Injected dose | biodistribution kidney ([2]; 1 min): 7.57 % Injected dose | biodistribution liver ([2]; 1 min): 22.44 % Injected dose | biodistribution lungs ([2]; 1 min): 1.71 % Injected dose | biodistribution muscle ([2]; 1 min): 13.95 % Injected dose | biodistribution skin ([2]; 1 min): 8.13 % Injected dose | biodistribution spleen ([2]; 1 min): 0.2 % Injected dose | biodistribution stomach ([2]; 1 min): 0.4 % Injected dose | biodistribution tail ([2]; 1 min): 8.46 % Injected dose | biodistribution urine ([2]; 1 min): 0.07 % Injected dose | biodistribution GIT ([2]; 3 min): 11.98 % Injected dose | biodistribution bladder ([2]; 3 min): 0.08 % Injected dose | biodistribution blood ([2]; 3 min): 15.59 % Injected dose | biodistribution bone ([2]; 3 min): 3.5 % Injected dose | biodistribution heart ([2]; 3 min): 0.2 % Injected dose | biodistribution kidney ([2]; 3 min): 5.68 % Injected dose | biodistribution liver ([2]; 3 min): 35.66 % Injected dose | biodistribution lungs ([2]; 3 min): 0.65 % Injected dose | biodistribution muscle ([2]; 3 min): 7.87 % Injected dose | biodistribution skin ([2]; 3 min): 8.31 % Injected dose | biodistribution spleen ([2]; 3 min): 0.09 % Injected dose | biodistribution stomach ([2]; 3 min): 0.43 % Injected dose | biodistribution tail ([2]; 3 min): 7.37 % Injected dose | biodistribution urine ([2]; 3 min): 0.81 % Injected dose | biodistribution GIT ([2]; 5 min): 27.85 % Injected dose | biodistribution bladder ([2]; 5 min): 0.07 % Injected dose | biodistribution blood ([2]; 5 min): 10.31 % Injected dose | biodistribution bone ([2]; 5 min): 3.86 % Injected dose | biodistribution heart ([2]; 5 min): 0.16 % Injected dose | biodistribution kidney ([2]; 5 min): 4.53 % Injected dose | biodistribution liver ([2]; 5 min): 30.85 % Injected dose | biodistribution lungs ([2]; 5 min): 0.69 % Injected dose | biodistribution muscle ([2]; 5 min): 7.24 % Injected dose | biodistribution skin ([2]; 5 min): 9.28 % Injected dose | biodistribution spleen ([2]; 5 min): 0.14 % Injected dose | biodistribution stomach ([2]; 5 min): 5.42 % Injected dose | biodistribution tail ([2]; 5 min): 7.64 % Injected dose | biodistribution urine ([2]; 5 min): 0.59 % Injected dose | biodistribution GIT ([2]; 10 min): 45.71 % Injected dose | biodistribution bladder ([2]; 10 min): 0.23 % Injected dose | biodistribution blood ([2]; 10 min): 6.34 % Injected dose | biodistribution bone ([2]; 10 min): 2.76 % Injected dose | biodistribution heart ([2]; 10 min): 0.08 % Injected dose | biodistribution kidney ([2]; 10 min): 2.44 % Injected dose | biodistribution liver ([2]; 10 min): 16.04 % Injected dose | biodistribution lungs ([2]; 10 min): 0.45 % Injected dose | biodistribution muscle ([2]; 10 min): 5.27 % Injected dose | biodistribution skin ([2]; 10 min): 5.17 % Injected dose | biodistribution spleen ([2]; 10 min): 0.07 % Injected dose | biodistribution stomach ([2]; 10 min): 3.42 % Injected dose | biodistribution tail ([2]; 10 min): 4.77 % Injected dose | biodistribution urine ([2]; 10 min): 1.231 % Injected dose | biodistribution GIT ([2]; 30 min): 51.18 % Injected dose | biodistribution bladder ([2]; 30 min): 0.2 % Injected dose | biodistribution blood ([2]; 30 min): 9.66 % Injected dose | biodistribution bone ([2]; 30 min): 2.54 % Injected dose | biodistribution heart ([2]; 30 min): 0.11 % Injected dose | biodistribution kidney ([2]; 30 min): 1.9 % Injected dose | biodistribution liver ([2]; 30 min): 14.05 % Injected dose | biodistribution lungs ([2]; 30 min): 0.39 % Injected dose | biodistribution muscle ([2]; 30 min): 6.92 % Injected dose | biodistribution skin ([2]; 30 min): 4.23 % Injected dose | biodistribution spleen ([2]; 30 min): 0.06 % Injected dose | biodistribution stomach ([2]; 30 min): 1.73 % Injected dose | biodistribution tail ([2]; 30 min): 2.41 % Injected dose | biodistribution urine ([2]; 30 min): 1.64 % Injected dose | biodistribution bone ([3]; 1 min): 4.33 % ID | biodistribution kidney ([3]; 1 min): 9.95 % ID | biodistribution liver ([3]; 1 min): 26.45 % ID | biodistribution muscle ([3]; 1 min): 17.93 % ID | biodistribution skin ([3]; 1 min): 13.91 % ID | biodistribution spleen ([3]; 1 min): 0.22 % ID | biodistribution bone ([3]; 3 min): 2.41 % ID | biodistribution kidney ([3]; 3 min): 5.24 % ID | biodistribution liver ([3]; 3 min): 34.06 % ID | biodistribution muscle ([3]; 3 min): 10.67 % ID | biodistribution skin ([3]; 3 min): 12.80 % ID | biodistribution spleen ([3]; 3 min): 0.08 % ID | biodistribution bone ([3]; 5 min): 1.67 % ID | biodistribution kidney ([3]; 5 min): 3.36 % ID | biodistribution liver ([3]; 5 min): 30.21 % ID | biodistribution muscle ([3]; 5 min): 6.35 % ID | biodistribution skin ([3]; 5 min): 10.62 % ID | biodistribution spleen ([3]; 5 min): 0.04 % ID | biodistribution bone ([3]; 10 min): 0.96 % ID | biodistribution kidney ([3]; 10 min): 1.98 % ID | biodistribution liver ([3]; 10 min): 18.58 % ID | biodistribution muscle ([3]; 10 min): 4.37 % ID | biodistribution skin ([3]; 10 min): 5.76 % ID | biodistribution spleen ([3]; 10 min): 0.03 % ID | biodistribution bone ([3]; 30 min): 0.34 % ID | biodistribution kidney ([3]; 30 min): 0.79 % ID | biodistribution liver ([3]; 30 min): 3.15 % ID | biodistribution muscle ([3]; 30 min): 7.73 % ID | biodistribution skin ([3]; 30 min): 0.86 % ID | biodistribution spleen ([3]; 30 min): 0.01 % ID | biodistribution kidney ([3]; 120 min): 0.06 % ID | biodistribution liver ([3]; 120 min): 1.33 % ID | biodistribution muscle ([3]; 120 min): 1.85 % ID | biodistribution skin ([3]; 120 min): 0.10 % ID | biodistribution spleen ([3]; 120 min): 0.00 % ID

O=C([O-])CC(O)(CC(=O)[O-])C(=O)[O-].[Ga+3] [Ga-67 citrate]
clearance [4]: clears slowly from the blood, through the liver, accumulating in the bowel | uptake at the disease sites [4]: relatively fast and selective uptake at the disease sites
